In brackets after ≈: the same amount, converted by molar mass.
Experiments:
[1] = Solubility of FMN in co-solvents; assay type: physicochemical; settings: organic solvent or mixture
Text: Other penetration-enhancing agents may include a non-ionic co-solvent as a tonicity agent in a formulation. Tonicity agents that are sufficiently low in MW can readily diffuse into the tissues. The therapeutic agent having good solubility in the co-solvent can experience enhanced delivery through the epithelium and into the stroma. Propylene glycol may be a penetration enhancer for topical formulations by this mechanism of action. Thus, the one or more therapeutic formulations 304 may include one or more co-solvents as tonicity agents 304c. A list of co-solvents that may be used to increase therapeutic agent delivery via this mechanism of action and suitable for ophthalmic use are shown in TABLE 2.
Both propylene glycol and glycerin may be employed as ingredients in dry eye drops. Glycerin has been evaluated for therapeutic agent delivery into the eye and is capable of penetrating the cornea. For instance, FMN has solubility in propylene glycol and glycerin that is greater than the total concentration in the formulation. As the co-solvent penetrates the tissues, it may carry some FMN into the tissues as well enhancing the delivery. Replacing the sodium chloride with glycerin or propylene glycol should not negatively impact therapeutic agent delivery of the FMN.

[2] = cited from earlier work

## Cc1cc2nc3c(=O)[nH]c(=O)nc-3n(C[C@H](O)[C@H](O)[C@H](O)COP(=O)(O)O)c2cc1C [FMN, riboflavin-5′-phosphate]
[1]; in ethanol
  solubility: 80 µg/mL (≈ 0.175 mM)
[1]; in glycerin
  solubility: 8900 µg/mL (≈ 19.5 mM)
[1]; in propylene glycol
  solubility: 5700 µg/mL (≈ 12.5 mM)

## CC1CCC(C(C)C)C(O)C1 (stereo not shown) [menthol]
[2]
  solubility in water: 0.04%
